Data on 6 compounds can be found in PubChem BioAssay (NCI).

Where “and” joins values, the source holds several entries; their conditions need not be identical. Identical values can stand only once.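 Briefly, cells in 96-well plates were exposed to five compound concentrations for 48 h, and endpoints were estimated by linear interpolation. TGI: concentration producing complete growth inhibition.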

The test system of the first experiment is A498 renal. The experiment in a line: inhibition of tumour cell growth, NCI panel, 48 h.
Regarding `COc1ccc(-c2c(C#N)c(N)n(C3OCC(OC(C)=O)C(OC(C)=O)C3OC(C)=O)c(=S)c2C#N)cc1` (stereo not drawn), the TGI was 70.1 µM and 84.2 µM.

In another experiment the test system is SK-MEL-28 melanoma. The experiment in a line: inhibition of tumour cell growth, NCI panel, 48 h.
For the compound `CNc1ncnc2c1ncn2C1C=CC(COS(N)(=O)=O)C1` (stereo not drawn), the TGI was over 100 µM.
Still for that read-out and setting: in the case of `O=C(NC1=NCC(CN2CCN(c3ccccc3)CC2)O1)Nc1ccccc1` (stereo not drawn) it was over 100 µM.
The same measure, in the same setting: in the case of `Cc1ccc2c(c1)[nH]c(=S)n2/C=C1\C(=O)Oc2ccccc2C1=O` it was over 100 µM; in that of `O=C1C(Cl)C2(CC(/C=C/c3ccccc3Cl)=NN2c2cccc(S(=O)(=O)O)c2)N1c1nc2ccccc2s1` (stereo not drawn), over 100 µM; in that of `COCCOC(=O)c1c(C)n([O-])c2cc(Cl)c(Cl)cc2[n+]1=O`, 61.7 µM.
`COc1ccc(-c2c(C#N)c(N)n(C3OCC(OC(C)=O)C(OC(C)=O)C3OC(C)=O)c(=S)c2C#N)cc1` (stereo not drawn) came in with a TGI of over 100 µM.

Another experiment deals with HCT-116 colon. The experiment in a line: inhibition of tumour cell growth, NCI panel, 48 h.
`CNc1ncnc2c1ncn2C1C=CC(COS(N)(=O)=O)C1` (stereo not drawn) displayed a TGI of over 100 µM.
Still for that read-out and setting: the figure for `O=C(NC1=NCC(CN2CCN(c3ccccc3)CC2)O1)Nc1ccccc1` (stereo not drawn) is over 100 µM; for `Cc1ccc2c(c1)[nH]c(=S)n2/C=C1\C(=O)Oc2ccccc2C1=O` it is over 100 µM; for `O=C1C(Cl)C2(CC(/C=C/c3ccccc3Cl)=NN2c2cccc(S(=O)(=O)O)c2)N1c1nc2ccccc2s1` (stereo not drawn) it is over 100 µM.
Same read-out and setting: in the case of `COc1ccc(-c2c(C#N)c(N)n(C3OCC(OC(C)=O)C(OC(C)=O)C3OC(C)=O)c(=S)c2C#N)cc1` (stereo not drawn) it was over 100 µM.

The test system of the next experiment is OVCAR-8 ovarian. The experiment in a line: inhibition of tumour cell growth, NCI panel, 48 h.
`CNc1ncnc2c1ncn2C1C=CC(COS(N)(=O)=O)C1` (stereo not drawn) registered a TGI of over 100 µM.
The compound `Cc1ccc2c(c1)[nH]c(=S)n2/C=C1\C(=O)Oc2ccccc2C1=O` gave a TGI of over 100 µM.
Same read-out and setting: the figure for `O=C1C(Cl)C2(CC(/C=C/c3ccccc3Cl)=NN2c2cccc(S(=O)(=O)O)c2)N1c1nc2ccccc2s1` (stereo not drawn) is over 100 µM.
The same measure, in the same setting: in the case of `COCCOC(=O)c1c(C)n([O-])c2cc(Cl)c(Cl)cc2[n+]1=O` it was 25.7 µM.
The same measure, in the same setting: the figure for `COc1ccc(-c2c(C#N)c(N)n(C3OCC(OC(C)=O)C(OC(C)=O)C3OC(C)=O)c(=S)c2C#N)cc1` (stereo not drawn) is over 100 µM.

A further experiment has as its system DU-145 prostate. The experiment in a line: inhibition of tumour cell growth, NCI panel, 48 h.
On to `CNc1ncnc2c1ncn2C1C=CC(COS(N)(=O)=O)C1` (stereo not drawn), for which the TGI is over 100 µM.
`O=C(NC1=NCC(CN2CCN(c3ccccc3)CC2)O1)Nc1ccccc1` (stereo not drawn) showed a TGI of over 100 µM.
Still for that read-out and setting: in the case of `Cc1ccc2c(c1)[nH]c(=S)n2/C=C1\C(=O)Oc2ccccc2C1=O` it was over 100 µM; in that of `O=C1C(Cl)C2(CC(/C=C/c3ccccc3Cl)=NN2c2cccc(S(=O)(=O)O)c2)N1c1nc2ccccc2s1` (stereo not drawn), 87.5 µM; in that of `COCCOC(=O)c1c(C)n([O-])c2cc(Cl)c(Cl)cc2[n+]1=O`, 25.8 µM.
On the same count and under the same terms, in the case of `COc1ccc(-c2c(C#N)c(N)n(C3OCC(OC(C)=O)C(OC(C)=O)C3OC(C)=O)c(=S)c2C#N)cc1` (stereo not drawn) it was over 100 µM.

The next experiment has as its system UACC-62 melanoma. Description: inhibition of tumour cell growth, NCI panel, 48 h.
Compound `CNc1ncnc2c1ncn2C1C=CC(COS(N)(=O)=O)C1` (stereo not drawn) gave a TGI of over 100 µM.
The same measure, in the same setting: the figure for `O=C(NC1=NCC(CN2CCN(c3ccccc3)CC2)O1)Nc1ccccc1` (stereo not drawn) is over 100 µM; for `Cc1ccc2c(c1)[nH]c(=S)n2/C=C1\C(=O)Oc2ccccc2C1=O` it is over 100 µM.
As for `O=C1C(Cl)C2(CC(/C=C/c3ccccc3Cl)=NN2c2cccc(S(=O)(=O)O)c2)N1c1nc2ccccc2s1` (stereo not drawn), the TGI was over 100 µM.
Take `COCCOC(=O)c1c(C)n([O-])c2cc(Cl)c(Cl)cc2[n+]1=O`: the TGI is 36.4 µM.
The same measure, in the same setting: in the case of `COc1ccc(-c2c(C#N)c(N)n(C3OCC(OC(C)=O)C(OC(C)=O)C3OC(C)=O)c(=S)c2C#N)cc1` (stereo not drawn) it was over 100 µM.

The subject of the next experiment is EKVX NSCLC. Description: inhibition of tumour cell growth, NCI panel, 48 h.
With `CNc1ncnc2c1ncn2C1C=CC(COS(N)(=O)=O)C1` (stereo not drawn), the TGI is over 100 µM.
Consider `O=C(NC1=NCC(CN2CCN(c3ccccc3)CC2)O1)Nc1ccccc1` (stereo not drawn), for which the TGI was over 100 µM.
On the same count and under the same terms, in the case of `O=C1C(Cl)C2(CC(/C=C/c3ccccc3Cl)=NN2c2cccc(S(=O)(=O)O)c2)N1c1nc2ccccc2s1` (stereo not drawn) it was over 100 µM; in that of `COCCOC(=O)c1c(C)n([O-])c2cc(Cl)c(Cl)cc2[n+]1=O`, 36.8 µM; in that of `COc1ccc(-c2c(C#N)c(N)n(C3OCC(OC(C)=O)C(OC(C)=O)C3OC(C)=O)c(=S)c2C#N)cc1` (stereo not drawn), over 100 µM.

The subject of a further experiment is A549 NSCLC. Description: inhibition of tumour cell growth, NCI panel, 48 h.
For the compound `CNc1ncnc2c1ncn2C1C=CC(COS(N)(=O)=O)C1` (stereo not drawn), the TGI is over 100 µM.
On the same count and under the same terms, the figure for `O=C(NC1=NCC(CN2CCN(c3ccccc3)CC2)O1)Nc1ccccc1` (stereo not drawn) is over 100 µM; for `Cc1ccc2c(c1)[nH]c(=S)n2/C=C1\C(=O)Oc2ccccc2C1=O` it is over 100 µM; for `O=C1C(Cl)C2(CC(/C=C/c3ccccc3Cl)=NN2c2cccc(S(=O)(=O)O)c2)N1c1nc2ccccc2s1` (stereo not drawn) it is over 100 µM.
`COCCOC(=O)c1c(C)n([O-])c2cc(Cl)c(Cl)cc2[n+]1=O`: the TGI was 35.7 µM.
For `COc1ccc(-c2c(C#N)c(N)n(C3OCC(OC(C)=O)C(OC(C)=O)C3OC(C)=O)c(=S)c2C#N)cc1` (stereo not drawn), the TGI was over 100 µM.

For another experiment, the system named is HOP-92 NSCLC. Description: inhibition of tumour cell growth, NCI panel, 48 h.
`CNc1ncnc2c1ncn2C1C=CC(COS(N)(=O)=O)C1` (stereo not drawn) showed a TGI of over 100 µM.
The same measure, in the same setting: in the case of `O=C(NC1=NCC(CN2CCN(c3ccccc3)CC2)O1)Nc1ccccc1` (stereo not drawn) it was over 100 µM; in that of `Cc1ccc2c(c1)[nH]c(=S)n2/C=C1\C(=O)Oc2ccccc2C1=O`, 71.5 µM.
Still for that read-out and setting: in the case of `O=C1C(Cl)C2(CC(/C=C/c3ccccc3Cl)=NN2c2cccc(S(=O)(=O)O)c2)N1c1nc2ccccc2s1` (stereo not drawn) it was over 100 µM; in that of `COCCOC(=O)c1c(C)n([O-])c2cc(Cl)c(Cl)cc2[n+]1=O`, 25.3 µM.
Still for that read-out and setting: in the case of `COc1ccc(-c2c(C#N)c(N)n(C3OCC(OC(C)=O)C(OC(C)=O)C3OC(C)=O)c(=S)c2C#N)cc1` (stereo not drawn) it was 88.8 µM and 98.5 µM.

A further experiment has as its system RXF 393 renal. The experiment in a line: inhibition of tumour cell growth, NCI panel, 48 h.
As for `CNc1ncnc2c1ncn2C1C=CC(COS(N)(=O)=O)C1` (stereo not drawn), the TGI is over 100 µM.
For the compound `O=C(NC1=NCC(CN2CCN(c3ccccc3)CC2)O1)Nc1ccccc1` (stereo not drawn), the TGI was over 100 µM.
The same measure, in the same setting: in the case of `Cc1ccc2c(c1)[nH]c(=S)n2/C=C1\C(=O)Oc2ccccc2C1=O` it was over 100 µM; in that of `O=C1C(Cl)C2(CC(/C=C/c3ccccc3Cl)=NN2c2cccc(S(=O)(=O)O)c2)N1c1nc2ccccc2s1` (stereo not drawn), over 100 µM; in that of `COCCOC(=O)c1c(C)n([O-])c2cc(Cl)c(Cl)cc2[n+]1=O`, over 100 µM.
Same read-out and setting: the figure for `COc1ccc(-c2c(C#N)c(N)n(C3OCC(OC(C)=O)C(OC(C)=O)C3OC(C)=O)c(=S)c2C#N)cc1` (stereo not drawn) is > 100 µM and 98.2 µM.

The test system of a further experiment is NCI-H460 lung. Description: inhibition of tumour cell growth, NCI panel, 48 h.
`CNc1ncnc2c1ncn2C1C=CC(COS(N)(=O)=O)C1` (stereo not drawn) returned a TGI of over 100 µM.
`O=C(NC1=NCC(CN2CCN(c3ccccc3)CC2)O1)Nc1ccccc1` (stereo not drawn) had a TGI of over 100 µM.
As to `Cc1ccc2c(c1)[nH]c(=S)n2/C=C1\C(=O)Oc2ccccc2C1=O`, the TGI was over 100 µM.
Same read-out and setting: in the case of `O=C1C(Cl)C2(CC(/C=C/c3ccccc3Cl)=NN2c2cccc(S(=O)(=O)O)c2)N1c1nc2ccccc2s1` (stereo not drawn) it was over 100 µM; in that of `COCCOC(=O)c1c(C)n([O-])c2cc(Cl)c(Cl)cc2[n+]1=O`, 25.9 µM; in that of `COc1ccc(-c2c(C#N)c(N)n(C3OCC(OC(C)=O)C(OC(C)=O)C3OC(C)=O)c(=S)c2C#N)cc1` (stereo not drawn), over 100 µM.
